Some results are limits rather than exact numbers.

This test concerns the target SARS-CoV-2 main protease (Mpro) (Severe acute respiratory syndrome coronavirus 2, UniProt P0DTD1). The test can be described thus: cell-based.
One may read the EC50 as the concentration giving half of the maximal effect. A lower EC50 goes with an effect from little substance. In the case of `CCCCCCCCCCCCCCCC(=O)N[C@@H](Cc1cccc(F)c1)C(=O)N[C@@H](C[C@@H]1CCNC1=O)C(=O)COc1c(F)c(F)c(CO)c(F)c1F` [compound 4, N-((S)-3-(3-Fluorophenyl)-1-oxo-1-(((S)-3-oxo-1-((S)-2-oxopyrrolidin-3-yl)-4-(2,3,5,6-tetrafluoro-4-(hydroxymethyl)phenoxy)butan-2-yl)amino)propan-2-yl)palmitamide], the EC50 was > 50100 nM.

`COc1cccc2[nH]c(C(=O)N[C@H](Cc3cccc(F)c3)C(=O)N[C@@H](C[C@@H]3CCNC3=O)C(=O)COc3c(F)c(F)c(CO)c(F)c3F)cc12` [compound 2, N-((R)-3-(3-Fluorophenyl)-1-oxo-1-(((S)-3-oxo-1-((S)-2-oxopyrrolidin-3-yl)-4-(2,3,5,6-tetrafluoro-4-(hydroxymethyl)phenoxy)butan-2-yl)amino)propan-2-yl)-4-methoxy-1H-indole-2-carboxamide]: the EC50 is 18600 nM.

In the case of `COc1cccc2[nH]c(C(=O)N[C@@H](Cc3cccc(F)c3)C(=O)N[C@@H](C[C@@H]3CCNC3=O)C(=O)COc3c(F)c(F)c(F)c(F)c3F)cc12` [compound 16, reference compound], the EC50 is < 3.02 nM.

In turn, `COc1cccc2[nH]c(C(=O)N[C@@H](Cc3cccc(F)c3)C(=O)N[C@@H](C[C@@H]3CC(=O)NC3=O)C(=O)COc3c(F)c(F)c(C(C)(C)O)c(F)c3F)cc12` [compound 11] had an EC50 of 1230 nM.

`COc1cccc2[nH]c(C(=O)N[C@@H](Cc3cccc(F)c3)C(=O)N[C@@H](C[C@@H]3CCNC3=O)C(=O)COc3c(F)c(F)c(CO)c(F)c3F)cc12` [compound 1, N-((S)-3-(3-Fluorophenyl)-1-oxo-1-(((S)-3-oxo-1-((S)-2-oxopyrrolidin-3-yl)-4-(2,3,5,6-tetrafluoro-4-(hydroxymethyl)phenoxy)butan-2-yl)amino)propan-2-yl)-4-methoxy-1H-indole-2-carboxamide] showed an EC50 of 105 nM.

With `COc1cccc2[nH]c(C(=O)N[C@@H](Cc3cccc(F)c3)C(=O)N[C@@H](C[C@@H]3CCNC3=O)C(=O)COc3c(F)c(F)c(C(C)(C)O)c(F)c3F)cc12` [compound 10, N-((S)-3-(3-Fluorophenyl)-1-oxo-1-(((S)-3-oxo-1-((S)-2-oxopyrrolidin-3-yl)-4-(2,3,5,6-tetrafluoro-4-(2-hydroxypropan-2-yl)phenoxy)butan-2-yl)amino)propan-2-yl)-4-methoxy-1H-indole-2-carboxamide], the EC50 is 4.68 nM.

Turning to `COc1cccc2[nH]c(C(=O)N[C@@H](Cc3cccc(F)c3)C(=O)N[C@@H](C[C@@H]3CCNC3=O)C(=O)COc3c(F)c(F)c(C(C)O)c(F)c3F)cc12` (stereo partly drawn) [compound 8, N-((2S)-3-(3-Fluorophenyl)-1-oxo-1-(((2S)-3-oxo-1-((S)-2-oxopyrrolidin-3-yl)-4-(2,3,5,6-tetrafluoro-4-(1-hydroxyethyl)phenoxy)butan-2-yl)amino)propan-2-yl)-4-methoxy-1H-indole-2-carboxamide], the midpoint of the response, the EC50, lay at 8.71 nM.

For the compound “N-((S)-3-(3-Fluorophenyl)-1-oxo-1-(((S)-2-oxo-5-(5-oxo-1,5-dihydro-4H-1,2,4-triazol-4-yl)-1-(2,3,5,6-tetrafluoro-4-(2-hydroxypropan-2-yl)phenoxy)pentan-3-yl)amino)propan-2-yl)-4-methoxy-1H-indole-2-carboxamide [compound 12]”, the “M^pro reporter assay pEC50” value was determined as 4.66.

Compound `O=C(N[C@@H](Cc1c[nH]c2ccccc12)C(=O)N[C@@H](C[C@@H]1CCNC1=O)C(=O)COc1c(F)c(F)c(CO)c(F)c1F)c1cc2ccccc2[nH]1` [compound 5, N-((S)-3-(1H-Indol-3-yl)-1-oxo-1-(((S)-3-oxo-1-((S)-2-oxopyrrolidin-3-yl)-4-(2,3,5,6-tetrafluoro-4-(hydroxymethyl)phenoxy)butan-2-yl)amino)propan-2-yl)-1H-indole-2-carboxamide] showed an EC50 of 2880 nM.

Source of the values: PMC12169608, “Peptidomimetic Phenoxymethyl Ketone Warheads as Potent Dual-Mode Inhibitors against SARS-CoV‑2 M^pro and Cathepsin” (Journal of Medicinal Chemistry, 2025).
